We go through four compounds from paper PMC4278362 (Bioorganic & medicinal chemistry, 2014).

Each structure is given as a SMILES string. In brackets after ≈: the same amount, converted by molar mass. Like-named read-outs stand apart in the source and are kept apart here.

Assay [1] relates to B. anthracis Sterne. Kind of assay: microbe, parasite or virus in culture. To be noted: for MIC: Bacillus anthracis, read-out: MIC B. anthracis Sterne. The class given is cell-based, Bacillus anthracis.
For assay [2], the target named is B anthracis DHFR (Bacillus anthracis, UniProt Q81R22). Kind of assay: biochemical. Conditions: Ki ± SEM B anthracis DHFR.
Sequence of B anthracis DHFR (Q81R22 1-162): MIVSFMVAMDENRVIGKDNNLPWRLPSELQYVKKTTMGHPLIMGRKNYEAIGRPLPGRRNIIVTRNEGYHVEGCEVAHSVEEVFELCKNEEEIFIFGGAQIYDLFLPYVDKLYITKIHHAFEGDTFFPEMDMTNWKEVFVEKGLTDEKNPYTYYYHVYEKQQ
For assay [3], the system named is B. anthracis Sterne. Conditions: cited from earlier work.

As to `CCOc1cc(Cc2cnc(N)nc2N)cc(/C=C/C(=O)N2N=Cc3ccccc3C2C=C(C)C)c1OCC` (racemic) [Compound 19b, (±)-(E)-3-{5-[(2,4-Diamino-5-pyrimidinyl)methyl]-2,3-diethoxyphenyl}-1-(1-isobutenyl-2(1H)-phthalazinyl)-2-propen-1-one], the MIC in assay [1] is 1 to 2 µg/mL (≈ 1.9 to 3.8 µM). Take `CCCC1c2ccccc2C=NN1C(=O)/C=C/c1cc(Cc2cnc(N)nc2N)cc(OC(=O)c2ccccc2)c1OC` (racemic) [Compound 29, (±)-(E)-5-[(2,4-Diamino-5-pyrimidinyl)methyl]-2-methoxy-3-[3-oxo-3-(1-propyl-2(1H)-phthalazinyl)-1-propen-1-yl]phenyl benzoate]: in assay [1], the “MIC B. anthracis Sterne” value lay in the range of 4 to 16 µg/mL and the MIC lay in the range of 2 to 16 µg/mL (≈ 3.47 to 27.7 µM). With `CCCC1c2ccccc2C=NN1C(=O)/C=C/c1cc(Cc2cnc(N)nc2N)cc(OCc2ccc(C(F)(F)F)cc2)c1OC` (racemic) [Compound 34, (±)-(E)-3-{5-[(2,4-Diamino-5-pyrimidinyl)methyl]-2-methoxy-3-[(4-(trifluoromethyl)benzyl)oxy]phenyl}-1-(1-propyl-2(1H)-phthalazinyl)-2-propen-1-one], in assay [2], the inhibitory constant (Ki) is more than 2200 nM. For the compound `COc1cc(Cc2cnc(N)nc2N)cc(OC)c1OC` [TMP, Trimethoprim], the “MIC B. anthracis Sterne” value in assay [3] is more than 2048 µg/mL.
